Where “and” joins values, the source holds several entries; their conditions need not be identical. Equal entries are not always repeated. Structures can show the parent of a compound that is named as a salt.
Test system: 5-HIAA release in the rat prefrontal cortex
Assay: Microdialysis: 5-HIAA release in prefrontal cortex after I.P. administration
Format: in vivo
Conditions: for 5-HIAA (% of respective basal), individual animal: 0.1 mg/kg I.P., c2-c9 = R#13,14,20,19,25,26,31,32; for 5-HIAA (% of respective basal), individual animal / 5-HIAA release, individual animals: hydrochloride; for 5-HIAA release, MEAN / 5-HIAA release, individual animals: 0.3 mg/kg I.P.; for 5-HIAA release, MEAN: n = 8; for 5-HIAA release, individual animals: one column per animal R#11,12,18,23,29,30,17,24
Description: The aim of the study was to evaluate, using microdialysis, the effects of an intraperitoneal (I.P.) administration in rats of three different doses of SON-117 on dopamine and its metabolites, serotonin and its metabolite (5-HIAA), and norepinephrine levels in prefrontal cortex.
Thirty-two adult male Wistar rats were used for the whole study (4 groups of eight animals planned for the study, Table 1).
Surgery was performed on rats weighing about 300 g at the beginning of the experiments. Rats were anaesthetized with Ketamine (50 mg/kg) & Xylazine (15 mg/kg) by intramuscular administration. The animals were placed in a stereotaxic apparatus in the flat-skull position at a constant setting of −3.3 mm between ear bars and the incisor bar. The animals were treated with a local anesthesic (xylocaine 1%, Astra Zeneca) and an analgesic (Temgesic, from Schering Plough, 0.05 mg/kg, s.c.). A rostrocaudal midline incision was made with a lancet to expose the dorsal skull surface. The “stereotaxic zero” was defined by the Bregma in accordance with Paxinos and Watson's atlas (1986). A hole was drilled in the skull with a drill and the meninges were pierced with a sterile needle to implant a CMA12 guide cannula which later received the dialysis probe.
Coordinates used for implanting guide cannula in prefrontal cortex from Bregma were anteroposterior 3.7 mm, mediolateral 0.8 mm, and dorsoventral −2 mm (top of the probe was at −5 mm). The guide cannula was fixed to the skull with two stainless steel screws (1.88 mm outside diameter) anchored. An application of dental cement was added. A plastic collar allowed each animal to be tethered to a Swivel assembly of the CMA 120 awake animal system. Following surgery, rats were kept in individual cages and allowed to recover for a minimum of 3-5 days before the experimentation. The rats were handled and put in plastic bowl for 10 min at least every day to habituate the animals to their new environment for the dialysis. An I.P. administration with saline was also performed every day.
Dialysis probes (CMA12/3 mm, membrane, 20 kD cut-off, Carnegie Medicine, Stockholm, Sweden), were carefully washed before inserting into the guide cannula. The wash was performed with the artificial cerebrospinal fluid (aCSF) medium (NaCl 147 mM, KCl 2.7 mM, CaCl2 1.2 mM, MgCl2 0.85 mM) at room temperature. The dialysis system was then equilibrated at 20° C. at a perfusion rate of 1 μl/min with a Carnegie pump (CMA100). All catheters (FEP tubing, internal volume of 1.2 μl/10 cm, and tubing adaptors) used for microdialysis were treated in the same conditions.
The probes duly prepared were inserted into the guide cannula and the CMA120 Swivel assembly secured to the animal using a plastic collar. Flow through the dialysis probe with aCSF was maintained at a rate of 1 μl/min during the whole experimentation. The first four fractions (corresponding to 2 hours) were discarded to avoid the effects of parenchymal disturbance and to ensure that an approximate steady-state level was reached. Fractions were then collected over a period of 8.5 h during which time the animals remained quiet. The dialysates were automatically collected with an autosampler (microfraction collector CMA 140, Carnegie Medicin) and stored at −80° C. until analysis. […] Perfusion was then maintained for 7 hours with aCSF. The dialysates (30 μl) were collected into 300 μl vials, transferred into dry ice and then kept frozen (−80° C.) until analysis. Frozen samples were shipped to a partner for analysis. At the end of the microdialysis study, a PBS with colored ink was perfused through the probe in order to visualize the dialyzed area.
Catecholamine assay: Concentrations of dopamine, DOPAC, HVA, 5-HIAA, 5-HT, and norepinephrin were determined for each sample by HPLC coupled with electrochemical detection.

## Cc1nnc(-c2cc3c(OC[C@@H](O)CN4CCC(c5ccc(Cl)c(Cl)c5)CC4)cccc3o2)o1 [SON-117, (S)-1-(4-(3,4-dichlorophenyl)piperidino)-3-(2-(5-methyl-1,3,4-oxadiazol-2-yl)benzo(b)furan-4-yloxy)-2-propanol hydrochloride]
T30-T1 h
  5-HIAA (% of respective basal), individual animal: 123.49 % of respective basal and 103.49 % of respective basal and 107.39 % of respective basal and 112.69 % of respective basal and 111.19 % of respective basal and 139.2 % of respective basal and 117.52 % of respective basal and 104.09 % of respective basal
  5-HIAA release, MEAN: 100.34 % of respective basal
  5-HIAA release, individual animals: 98.98 % of respective basal and 79.36 % of respective basal and 110.17 % of respective basal and 105.67 % of respective basal and 80.63 % of respective basal and 95.45 % of respective basal and 117.90 % of respective basal and 114.56 % of respective basal
T1 h 30-T2 h
  5-HIAA (% of respective basal), individual animal: 92.61 % of respective basal and 104.00 % of respective basal and 73.42 % of respective basal and 136.95 % of respective basal and 121.36 % of respective basal and 90.88 % of respective basal and 109.96 % of respective basal and 88.3 % of respective basal
  5-HIAA release, MEAN: 92.27 % of respective basal
  5-HIAA release, individual animals: 107.81 % of respective basal and 80.74 % of respective basal and 99.11 % of respective basal and 100.15 % of respective basal and 74.98 % of respective basal and 49.45 % of respective basal and 122.26 % of respective basal and 103.65 % of respective basal
T1 h-T1 h 30
  5-HIAA (% of respective basal), individual animal: 133.03 % of respective basal and 136.32 % of respective basal and 86.58 % of respective basal and 118.45 % of respective basal and 137.53 % of respective basal and 136.04 % of respective basal and 114.03 % of respective basal and 94.61 % of respective basal
  5-HIAA release, MEAN: 98.46 % of respective basal
  5-HIAA release, individual animals: 102.59 % of respective basal and 87.99 % of respective basal and 119.49 % of respective basal and 107.50 % of respective basal and 64.53 % of respective basal and 82.55 % of respective basal and 108.28 % of respective basal and 114.78 % of respective basal
T2 h 30-T3 h
  5-HIAA (% of respective basal), individual animal: 85.72 % of respective basal and 87.35 % of respective basal and 46.33 % of respective basal and 101.63 % of respective basal and 145.61 % of respective basal and 142.25 % of respective basal and 116.28 % of respective basal and 27.66 % of respective basal
  5-HIAA release, MEAN: 88.58 % of respective basal
  5-HIAA release, individual animals: 90.73 % of respective basal and 88.56 % of respective basal and 94.96 % of respective basal and 87.45 % of respective basal and 59.92 % of respective basal and 79.89 % of respective basal and 107.14 % of respective basal and 99.98 % of respective basal
T2 h-T2 h 30
  5-HIAA (% of respective basal), individual animal: 100.99 % of respective basal and 85.23 % of respective basal and 60.74 % of respective basal and 101.82 % of respective basal and 125.47 % of respective basal and 100.57 % of respective basal and 111.12 % of respective basal and 50.78 % of respective basal
  5-HIAA release, MEAN: 88.16 % of respective basal
  5-HIAA release, individual animals: 82.87 % of respective basal and 87.22 % of respective basal and 100.63 % of respective basal and 93.66 % of respective basal and 63.67 % of respective basal and 70.87 % of respective basal and 109.73 % of respective basal and 96.64 % of respective basal
T3 h 30-T4 h
  5-HIAA (% of respective basal), individual animal: 85.88 % of respective basal and 94.27 % of respective basal and 31.74 % of respective basal and 96.48 % of respective basal and 188.3 % of respective basal and 137.13 % of respective basal and 101.46 % of respective basal and 21.73 % of respective basal
T3 h-T3 h 30
  5-HIAA (% of respective basal), individual animal: 129.21 % of respective basal and 80.95 % of respective basal and 41.77 % of respective basal and 96.17 % of respective basal and 133.55 % of respective basal and 113.01 % of respective basal and 113.45 % of respective basal and 29.04 % of respective basal
T4 h 30-T5 h
  5-HIAA (% of respective basal), individual animal: 135.57 % of respective basal and 84.63 % of respective basal and 82.26 % of respective basal and 21.52 % of respective basal and 127.36 % of respective basal and 130.30 % of respective basal and 108.83 % of respective basal and 86.42 % of respective basal
T4 h-T4 h 30
  5-HIAA (% of respective basal), individual animal: 155.28 % of respective basal and 81.87 % of respective basal and 29.82 % of respective basal and 104.10 % of respective basal and 154.95 % of respective basal and 128.712 % of respective basal and 116.56 % of respective basal and 100.63 % of respective basal
T5 h 30-T6 h
  5-HIAA (% of respective basal), individual animal: 139.17 % of respective basal and 82.04 % of respective basal and 19.18 % of respective basal and 72.04 % of respective basal and 120.26 % of respective basal and 106.59 % of respective basal and 103.65 % of respective basal and 79.99 % of respective basal
T5 h-T5 h 30
  5-HIAA (% of respective basal), individual animal: 141.25 % of respective basal and 94.73 % of respective basal and 20.29 % of respective basal and 84.33 % of respective basal and 123.82 % of respective basal and 104.61 % of respective basal and 111.73 % of respective basal and 87.84 % of respective basal
T6 h 30-T7 h
  5-HIAA (% of respective basal), individual animal: 142.73 % of respective basal and 92.55 % of respective basal and 23.25 % of respective basal and 79.21 % of respective basal
T6 h-T6 h 30
  5-HIAA (% of respective basal), individual animal: 150.15 % of respective basal and 87.80 % of respective basal and 10.87 % of respective basal and 82.34 % of respective basal and 124.74 % of respective basal and 107.55 % of respective basal and 96.41 % of respective basal and 77.86 % of respective basal
T0-T30 min
  5-HIAA release, MEAN: 103.44 % of respective basal
